The values below come from article PMC4491176, “Caenorhabditis elegans is a useful model for anthelmintic discovery” (Nature Communications, 2015).

Where two headings read alike, the source gives them in different places. Bounds are passed on as bounds.

One assay concerns the target T1, Mouse complex II (Mus musculus, UniProt Q9CQA3+Q9CXV1+Q9CZB0).
T1 construct: The livers from three 8–10-week-old C57Bl/6 female mice (Charles River) were removed; tissue Charles River (mice); host or cells: crude mitochondria from liver of C57Bl/6 female mice
As to the kind of experiment: Cell-free Complex II functional assay, mouse liver mitochondria. It is filed as biochemical, M. musculus. The method, then: The livers from three 8–10-week-old C57Bl/6 female mice (Charles River) were removed, collected in 1.5 ml microcentrifuge tubes, flash frozen in liquid nitrogen and stored at −80 °C until needed. Just before mitochondria isolation, the livers were weighed, placed into a 10-cm petri dish and 10 ml isolation buffer A was added per gram of liver tissue. The tissue was finely minced with a razor blade, transferred to a glass Dounce homogenizer and homogenized by 10 strokes on ice. The homogenate was centrifuged at 1,000g for 10 min at 4 °C. The supernatant was collected and centrifuged at 1,000g for 10 min at 4 °C. The supernatant was again collected and centrifuged at 16,000g for 10 min at 4 °C. The pellet was resuspended in 20 ml of isolation buffer B and centrifuged at 16,000g for 10 min at 4 °C. The pellet was resuspended in 20 ml of isolation buffer B, and 1 ml aliquots of the resuspension were distributed into 20 × 1.5 ml microcentrifuge tubes. The aliquoted resuspensions were centrifuged at 16,000g for 10 min at 4 °C. The supernatant was aspirated, the pellet was flash frozen in liquid nitrogen and stored frozen at −80 °C until needed. The mice used for experimentation were housed and used in accordance with ‘the use and care of experimental animals' guidelines. […]
Mitochondrial pellets were thawed on ice and resuspended in 300 μl of cold isolation buffer B. Using the BCA assay, the protein concentration of the mitochondria suspension was determined and was subsequently diluted to a concentration of 0.2 mg ml^−1 with cold isolation buffer B. Complex II enzymatic assays were carried out in 96-well flat bottom plates. […] Absorbance for each well was measured at 600 nm using a SpectraMax Plus 384-well Microplate Reader, combined with SoftmaxPro software at 30-s intervals over a 35-min time period. Absorbance versus time was plotted for each well and enzyme activity was calculated as the slope of the line defined by the points ranging from 4 to 10 min. Per cent activity was calculated by dividing the enzyme activity of the chemical-treated wells by that of the DMSO control wells. […]

Another assay relates to C. elegans N2. As to the kind of experiment: 96-well liquid-based dose-response (in vivo LD100), wild-type worms. The settings on record: lowest concentration with no viable animals in four of four wells, 6 days after 20 L1 worms deposited. Here is the method:
(§1) The 96-well liquid-based chemical screening assay was adapted from an established RNAi screening protocol. Briefly, saturated HB101 Escherichia coli culture was concentrated 2-fold using NGM (nematode growth media) containing 3 mg ml^−1 NaCl, 2.5 mg ml^−1 peptone, 5 μg ml^−1 cholesterol, 1 mM CaCl2, 1 mM MgSO4 and 25 mM KH2PO4. A total of 40 μl of NGM+HB101 was dispensed into each well of a 96-well plate, and chemicals were pinned into the wells using a pinning tool with a 300 nl slot volume (V&P Scientific). Approximately 20 synchronized first larval-stage (L1) worms, in 10 μl of M9 buffer (see ref. [24] for the recipe), were then added to each well. The synchronized L1s were obtained from an embryo preparation (see ref. [24] for the protocol) performed the previous day. The final concentration of dimethyl sulfoxide (DMSO) in the wells was 0.6% v/v. A dissection microscope was used to visualize the wells either 5 or 6 days post worm deposition and any obvious chemical-induced phenotypes were noted.
(§2) The 96-well liquid-based assay was also used for all follow-up dose-response experiments in this work. These experiments were carried out in quadruplicate, and the total number of worms in each well was counted 6 days after worm deposition.

The target of assay [1] is wild-type C. elegans complex II (Caenorhabditis elegans, UniProt O62215+P41956+Q09508+Q09545). As to the kind of experiment: biochemical. It is filed as biochemical.
wild-type C. elegans complex II, sequence (O62215 whole entry): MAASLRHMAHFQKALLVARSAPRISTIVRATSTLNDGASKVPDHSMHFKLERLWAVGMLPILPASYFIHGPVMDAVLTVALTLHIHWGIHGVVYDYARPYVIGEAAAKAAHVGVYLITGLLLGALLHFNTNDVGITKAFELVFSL
wild-type C. elegans complex II, sequence (Q09545 whole entry): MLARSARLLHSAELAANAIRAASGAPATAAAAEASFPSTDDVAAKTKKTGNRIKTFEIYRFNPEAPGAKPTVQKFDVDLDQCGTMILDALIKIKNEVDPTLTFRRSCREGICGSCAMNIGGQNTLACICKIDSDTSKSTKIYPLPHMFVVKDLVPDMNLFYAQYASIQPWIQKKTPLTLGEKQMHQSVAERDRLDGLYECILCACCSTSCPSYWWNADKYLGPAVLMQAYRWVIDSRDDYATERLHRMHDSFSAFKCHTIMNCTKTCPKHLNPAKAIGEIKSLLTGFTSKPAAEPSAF
wild-type C. elegans complex II, sequence (Q09508 32-646): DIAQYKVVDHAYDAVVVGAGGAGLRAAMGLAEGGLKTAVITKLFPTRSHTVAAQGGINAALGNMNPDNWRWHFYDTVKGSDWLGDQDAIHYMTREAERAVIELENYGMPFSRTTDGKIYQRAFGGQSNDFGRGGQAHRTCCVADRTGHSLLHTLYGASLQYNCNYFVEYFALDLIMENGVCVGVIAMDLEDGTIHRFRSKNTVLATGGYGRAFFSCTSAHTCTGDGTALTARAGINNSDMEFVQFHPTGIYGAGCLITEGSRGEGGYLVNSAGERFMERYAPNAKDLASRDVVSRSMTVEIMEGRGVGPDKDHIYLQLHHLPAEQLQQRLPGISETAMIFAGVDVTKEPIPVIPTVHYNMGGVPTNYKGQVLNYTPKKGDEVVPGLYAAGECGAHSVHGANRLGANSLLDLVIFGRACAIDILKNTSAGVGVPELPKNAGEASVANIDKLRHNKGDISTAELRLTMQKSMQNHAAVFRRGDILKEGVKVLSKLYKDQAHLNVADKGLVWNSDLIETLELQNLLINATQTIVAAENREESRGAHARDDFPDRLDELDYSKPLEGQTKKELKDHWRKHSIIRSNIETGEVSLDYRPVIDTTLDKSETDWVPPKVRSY
wild-type C. elegans complex II, sequence (P41956 whole entry): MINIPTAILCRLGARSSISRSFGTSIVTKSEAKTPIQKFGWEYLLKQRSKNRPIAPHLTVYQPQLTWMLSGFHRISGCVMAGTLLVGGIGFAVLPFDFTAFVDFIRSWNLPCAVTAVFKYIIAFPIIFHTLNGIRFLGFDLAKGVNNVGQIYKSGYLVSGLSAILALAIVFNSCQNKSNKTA
Assay [2] concerns wact-11-family resistant C. elegans mutants (RP2674, RP2698 and others). As to the kind of experiment: 96-well liquid-based dose-response (in vivo LD100), wact-11-family resistant mutants. The settings on record: for Resistance of wact-11-family resistant mutants to compound-induced lethality (in words): liquid dose-response of resistant mutants versus N2; for In vivo LD100: 6 days. Here is the method: as §1, §2

Assay [3] concerns complex II from the parasitic nematode Ascaris suum. More on the design: method as in PMID 19724139, PMID 23333273. The settings on record: cited from earlier work.
Assay [4] concerns the target C. elegans complex II with SDHC-1(R74K) missense mutation (Caenorhabditis elegans, UniProt O62215+P41956+Q09508+Q09545, R74K). As to the kind of experiment: Cell-free Complex II functional assay, mitochondria from wact-11-resistant mutants RP2674 and RP2698. It is filed as biochemical.
The subject of assay [5] is three nematode species, zebrafish and HEK cells. As to the kind of experiment: Grouping by phylogenetic bioactivity profile (multi-organism screening pipeline). The arrangement: key: Group 1 molecules are lethal to only one or two of the three nematode species tested, but are non-lethal to zebrafish and HEK cells.; Group 2 molecules are lethal to all three nematode species, but are non-lethal to zebrafish and human cells.; Group 3 molecule are lethal to fish or HEK cells, regardless of their nematode bioactivity profile. The settings on record: nematode selectivity and cross-species lethality group. The text has this:
To further characterize our 275 C. elegans-lethal molecules, we organized them into three separate groups based on their phylogenetic bioactivity profiles (Fig. 2a). Group 1 contains 102 molecules that are lethal to only one or two of the three nematode species tested, but are non-lethal to zebrafish and HEK cells. Group 2 contains 67 compounds that are lethal to all three nematode species, but are non-lethal to zebrafish and human cells. Group 3 contains the remaining 106 compounds that are lethal to fish or HEK cells, and have varied bioactivity in different nematode species. In particular, the 67 molecules in group 2 represent potentially ideal anthelmintic leads; they have activity across multiple nematode species, and appear not to affect vertebrates.

Setting [6] is: C. elegans, strain N2, SDHC residue change none, read-out: In vitro Complex II IC50.
Where [7] appears, read: M. musculus, C57Bl/6 liver mitochondria, read-out: In vitro Complex II IC50.
[8] abbreviates: read-out: In vitro Complex II IC50, C. elegans, strain RP2674, SDHC R74K.
[9] abbreviates: read-out: In vitro Complex II IC50, C. elegans, strain RP2698, SDHC R74K.
[10] abbreviates: C. elegans strain RP2674 (SDHC R74K).
Where [11] appears, read: C. elegans strain RP2698 (SDHC R74K).

By IC50 is commonly meant the point on the concentration scale where inhibition reaches its midpoint.

C. elegans complex II with SDHC-1(R74K) missense mutation, sequence (O62215 whole entry): as the sequence (O62215 whole entry) above
C. elegans complex II with SDHC-1(R74K) missense mutation, sequence (P41956 whole entry R74K): as the sequence (P41956 whole entry) above, with R74K counted along it
C. elegans complex II with SDHC-1(R74K) missense mutation, sequence (Q09508 32-646): as the sequence (Q09508 32-646) above
C. elegans complex II with SDHC-1(R74K) missense mutation, sequence (Q09545 whole entry): as the sequence (Q09545 whole entry) above
T1 sequence (Q9CZB0 30-169): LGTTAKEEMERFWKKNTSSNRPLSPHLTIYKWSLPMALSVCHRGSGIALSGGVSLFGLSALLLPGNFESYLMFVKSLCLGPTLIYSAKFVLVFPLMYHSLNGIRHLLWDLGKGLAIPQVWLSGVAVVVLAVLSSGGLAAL
T1 sequence (Q9CQA3 31-282): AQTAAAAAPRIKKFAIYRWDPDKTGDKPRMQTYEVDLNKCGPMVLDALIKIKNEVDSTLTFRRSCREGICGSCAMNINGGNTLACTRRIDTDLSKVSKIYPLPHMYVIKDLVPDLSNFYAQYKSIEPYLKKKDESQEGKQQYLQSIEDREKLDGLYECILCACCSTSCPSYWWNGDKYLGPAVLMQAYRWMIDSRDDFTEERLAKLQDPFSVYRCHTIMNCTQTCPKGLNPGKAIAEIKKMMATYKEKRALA
T1 sequence (Q9CXV1 57-159): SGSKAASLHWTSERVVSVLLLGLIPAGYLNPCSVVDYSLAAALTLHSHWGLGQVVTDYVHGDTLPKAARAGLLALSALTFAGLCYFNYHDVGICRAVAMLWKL
T1 sequence (Q8K2B3 43-664 partner): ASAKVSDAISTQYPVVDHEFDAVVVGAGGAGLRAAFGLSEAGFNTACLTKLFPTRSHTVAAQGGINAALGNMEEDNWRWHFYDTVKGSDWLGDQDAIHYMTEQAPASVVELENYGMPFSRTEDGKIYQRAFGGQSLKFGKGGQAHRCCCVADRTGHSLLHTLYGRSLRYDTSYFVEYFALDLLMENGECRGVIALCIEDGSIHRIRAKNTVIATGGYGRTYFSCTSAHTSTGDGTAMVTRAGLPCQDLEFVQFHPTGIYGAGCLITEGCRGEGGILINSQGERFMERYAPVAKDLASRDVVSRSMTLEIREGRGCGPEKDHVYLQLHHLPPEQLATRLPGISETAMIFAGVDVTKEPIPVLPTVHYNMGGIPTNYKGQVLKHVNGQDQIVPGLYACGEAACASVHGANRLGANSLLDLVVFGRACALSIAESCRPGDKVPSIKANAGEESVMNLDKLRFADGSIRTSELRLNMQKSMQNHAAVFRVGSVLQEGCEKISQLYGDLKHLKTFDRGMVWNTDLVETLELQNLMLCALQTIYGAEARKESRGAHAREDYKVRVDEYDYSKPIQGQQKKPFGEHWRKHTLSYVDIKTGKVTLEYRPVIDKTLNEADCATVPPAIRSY

Regarding `COc1[nH]c(=O)c(C(=O)[C@@H](C)C[C@H](C)[C@@H](Cl)CCl)c(O)c1OC` [Atpenin A5], at Mouse complex II, inhibition was half-maximal at 0.593 µM (IC50). In addition, in the assay on C. elegans N2, the “In vivo LD100” value was over 120 µM.

In turn, `O=C(Nc1ccccc1)c1ccccc1I` [Benodanil] displayed an IC50 in assay [1] of 0.186 µM. Moreover, the “In vivo LD100” value with C. elegans N2 came to 120 µM. In assay [2], the “Resistance of wact-11-family resistant mutants to compound-induced lethality (in words)” value (shortened to “Resistance”) was “resist the lethality”.

In assay [1], `O=C(Nc1ccccc1-c1ccc(Cl)cc1)c1cccnc1Cl` [Boscalid] returned an IC50 of 0.549 µM. The “In vivo LD100” value in the assay with C. elegans N2 was over 120 µM.

In the case of `CC1=C(C(=O)Nc2ccccc2)SCCO1` [Carboxine], the IC50 in assay [1] was over 10 µM. The “In vivo LD100” value in the assay with C. elegans N2 is over 120 µM.

In assay [1], `CC1=NS(=O)(=O)c2cc(Cl)ccc2N1` [Diazoxide] yielded an IC50 of over 10 µM. Further, the “In vivo LD100” value in the assay with C. elegans N2 was over 120 µM.

As for `Cc1occc1C(=O)Nc1ccccc1` [Fenfuran], 5.28 µM corresponded to half-maximal inhibition in assay [1] (IC50). In addition, the “In vivo LD100” value with C. elegans N2 was over 120 µM.

`O=C(NCCc1ncc(C(F)(F)F)cc1Cl)c1ccccc1C(F)(F)F` [Fluopyram] registered an IC50 in assay [1] of 0.0018 µM. Also, the “Less inhibiting than wact-11 f and wact-11 m” value in assay [1] (C. elegans N2 complex II IC50) was about 2 fold. Further, the “In vivo LD100” value in the assay with C. elegans N2 is 0.469 µM. Further, in assay [2], the “Resistance” value is reported as “resist the lethality”.

On to `CC(C)Oc1cccc(NC(=O)c2ccccc2C(F)(F)F)c1` [Flutolanil], for which the “Inhibition of Ascaris suum complex II in vitro (in words)” value in assay [3] was “inhibit”. This compound displayed an IC50 in assay [1] of 0.311 µM. In addition, the “In vivo LD100” value in the assay with C. elegans N2 is over 120 µM.

Turning to `C/C=C/CC(C)C(=O)c1c(O)c(OC)c(OC)[nH]c1=O` (stereo not shown) [Harz, harzianopyridone], the IC50 in assay [1] (setting [6]) was over 10 µM. Also, the “In vivo LD100” value with C. elegans N2 is over 120 µM.

On to `O=C([O-])CC(=O)[O-].[Na+].[Na+]` [Malonate, disodium malonate], for which the IC50 in assay [4] (C. elegans, strain RP2674, SDHC R74K, read-out: In vitro Complex II IC50) stood at 4200 µM; in assay [4] (C. elegans, strain RP2698, SDHC R74K, read-out: In vitro Complex II IC50) it was 4200 µM; in assay [1] (setting [6]), 4900 µM. The “In vivo LD100” value in the assay on C. elegans N2 was over 120 µM.

Turning to `O=C(CC(=O)C(F)(F)F)c1cccs1` [TTFA, thenoyltrifluoroacetone], the IC50 in assay [1] (setting [6]) is over 10 µM. Also, in the assay on C. elegans N2, the “In vivo LD100” value is over 120 µM.

In assay [1], `Cc1nc(C(F)(F)F)c(C(=O)Nc2c(Br)cc(OC(F)(F)F)cc2Br)s1` [Thifluzamide] returned an IC50 of 3.82 µM. In addition, the “In vivo LD100” value in the assay with C. elegans N2 was over 120 µM.

As to `O=C(NCCc1ccc(Cl)cc1)c1ccccc1C(F)(F)F` [wact-11], the IC50 at Mouse complex II (setting [7]) is over 10 µM; in assay [4], over 10 µM; in assay [4] (setting [8]), over 10 µM; in assay [4] (setting [9]), over 10 µM; in assay [1], 0.0074 µM. Also, the “Group # (Bioactivity Group #)” value in assay [5] is 2. The “In vivo LD100” value in the assay on C. elegans N2 is 7.5 µM; in assay [2] (setting [10]), over 120 µM; in assay [2] (setting [11]) it was over 120 µM. The “Resistance” value in assay [2] is reported as “at least some resistance”.

Take `CCc1ccc(OCCNC(=O)c2ccccc2I)cc1` [wact-12]: the IC50 on Mouse complex II (setting [7]) is over 10 µM; in assay [4], over 10 µM; in assay [4] (setting [8]), over 10 µM; in assay [4] (setting [9]), over 10 µM; in assay [1], 0.0057 µM. The “Group # (Bioactivity Group #)” value in assay [5] came out at 2. Moreover, the “In vivo LD100” value with C. elegans N2 was 7.5 µM; in assay [2] (setting [10]), over 120 µM; in assay [2] (setting [11]) it was over 120 µM.

As to `Cc1ccc(SCCNC(=O)c2ccccc2I)cc1` [wact-12c], the IC50 in assay [1] (setting [6]) was 0.133 µM. Besides, the “In vivo LD100” value in the assay on C. elegans N2 is over 120 µM.

For the compound `CCCCCNC(=O)c1ccccc1SC` [wact-127], the “Group # (Bioactivity Group #)” value in assay [5] is 2.
